Measurements from patent US20120088746A1, “AMIDE DERIVATIVES AS ION-CHANNEL LIGANDS AND PHARMACEUTICAL COMPOSITIONS AND METHODS OF USING THE SAME” (PFIZER INC., priority 2006, published 2012).

The molecules below were run against human VR1 (Homo sapiens, UniProt Q8NER1) (assay: Acid stimulation assay (acid-induced intracellular calcium change, FDSS 6000)). Conditions: final assay buffer pH5.8, 15 min pre-incubation, read-out: IC50 (nM) Low pH.
Type: cell-based
Description: VR1 antagonistic activity can be determined by the Ca^2+ imaging assay using human VR1 highly expressing cells. The cells that highly express human VR1 receptors are obtainable from several different conventional methods. The one standard method is cloning from human Dorsal Root Ganglion (DRG) or kidney according to the methods such as described in the journal article; Nature, 389, pp 816-824, 1997. Alternatively VR1 receptors highly expressing human keratinocytes are also known and published in the journal article (Biochemical and Biophysical Research Communications, 291, pp 124-129, 2002). […] Furthermore, the method to up regulate human VR1 gene, which is usually a silent gene or don't produce detectable level of VR1 receptors, is also available to obtain propriety cells. Such genetic modification method was described in detail; Nat. Biotechnol., 19, pp 440-445, 2001.
The cells that express human VR1 receptors were maintained in culture flask at 37° C. in an environment containing 5% CO2 until use in the assay. The intracellular Ca^2+ imaging assay to determine VR1 antagonistic activities were done by following procedures.
The culture medium was removed from the flask and fura-2/AM fluorescent calcium indicator was added to the flask at a concentration of 5 μM in the medium. The flask was placed in CO2 incubator and incubated for 1 hour. Then the cells expressing the human VR1 receptors were detached from the flask follow by washing with phosphate buffer saline, PBS(−) and re-suspended in assay buffer. The 80 tit of aliquot of cell suspension (3.75×10^5 cells/ml) was added to the assay plate and the cells were spun down by centrifuge (950 rpm, 20° C., 3 minutes).
(§1) The Acid-induced changes in the intracellular calcium concentration were monitored using FDSS 6000 (Hamamatsu Photonics, Japan), a fluorometric imaging system. The cell suspension in resting buffer (HBSS supplemented with 10 mM HEPES, pH 7.4) were pre-incubated with varying concentrations of the test compounds or resting buffer (buffer control) for 15 minutes at room temperature under the dark condition. The cells were automatically added the stimulating solution (HBSS supplemented with MES, final assay buffer pH5.8) by the FDSS 6000.
as §1, with “7.4) was” for “7.4) were”, “under” for “under the”, “dark conditions.” for “dark condition.”, “added to” for “added”

Chain of human VR1 (Q8NER1 whole entry): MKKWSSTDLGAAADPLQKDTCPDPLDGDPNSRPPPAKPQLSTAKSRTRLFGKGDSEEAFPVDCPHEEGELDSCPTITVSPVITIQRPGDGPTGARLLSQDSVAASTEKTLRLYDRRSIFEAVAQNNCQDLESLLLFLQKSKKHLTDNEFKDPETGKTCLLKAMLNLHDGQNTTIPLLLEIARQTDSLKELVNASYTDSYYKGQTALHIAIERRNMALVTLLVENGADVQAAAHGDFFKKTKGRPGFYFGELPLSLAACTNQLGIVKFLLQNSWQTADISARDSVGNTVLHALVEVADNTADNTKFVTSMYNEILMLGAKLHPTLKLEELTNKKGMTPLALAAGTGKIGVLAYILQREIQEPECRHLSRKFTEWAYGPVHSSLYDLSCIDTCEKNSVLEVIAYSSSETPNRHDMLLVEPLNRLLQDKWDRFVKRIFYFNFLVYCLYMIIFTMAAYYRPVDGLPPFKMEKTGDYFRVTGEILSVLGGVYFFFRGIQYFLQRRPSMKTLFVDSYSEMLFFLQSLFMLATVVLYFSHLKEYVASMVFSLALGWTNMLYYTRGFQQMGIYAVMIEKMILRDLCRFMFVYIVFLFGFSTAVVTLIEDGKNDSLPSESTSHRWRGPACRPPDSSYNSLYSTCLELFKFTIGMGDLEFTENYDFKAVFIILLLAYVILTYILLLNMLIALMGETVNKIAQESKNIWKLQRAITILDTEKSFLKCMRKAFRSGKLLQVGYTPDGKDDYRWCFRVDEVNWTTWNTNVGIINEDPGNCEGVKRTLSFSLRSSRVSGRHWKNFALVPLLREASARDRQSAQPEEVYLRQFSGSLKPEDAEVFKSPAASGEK

IC50 [nM]	Compound
532	Cc1cc([C@@H](C)NC(=O)c2cnc3cc(C(C)(C)C)ccc3c2C)ccc1NS(C)(=O)=O [Example 42, 7-TERT-BUTYL-4-METHYL-N-((1R)-1-{3-METHYL-4-[(METHYLSULFONYL)AMINO]PHENYL}-ETHYL)QUINOLINE-3-CARBOXAMIDE]
30	Cc1cc([C@@H](C)NC(=O)c2cnc3cc(C(F)(F)F)ccc3c2)c(F)cc1NS(C)(=O)=O [Example 43, N-((1R)-1-{2-FLUORO-5-METHYL-4-[(METHYLSULFONYL)AMINO]PHENYL}ETHYL)-7-(TRIFLUOROMETHYL)QUINOLINE-3-CARBOXAMIDE]
15	CCOc1ccc2cc(C(=O)N[C@H](C)c3ccc(NS(C)(=O)=O)c(C)c3)ccc2n1 [Example 44, 2-ETHOXY-N-((1R)-1-{3-METHYL-4-[(METHYLSULFONYL)AMINO]PHENYL}ETHYL)-QUINOLINE-6-CARBOXAMIDE]
1	Cc1cc([C@@H](C)NC(=O)c2ccc3cc(C(F)(F)F)ccc3c2)ccc1NS(C)(=O)=O [Example 51, N-((1R)-1-{3-METHYL-4-[(METHYLSULFONYL)AMINO]PHENYL}ETHYL)-6-(TRIFLUORO-METHYL)-2-NAPHTHAMIDE]
22	Cc1cc([C@@H](C)NC(=O)c2ccc3cc(C4CC4)ccc3c2)c(Cl)cc1NS(C)(=O)=O [Example 52, (R)—N-(1-(2-CHLORO-5-METHYL-4-(METHYLSULFONAMIDO)PHENYL)ETHYL)-6-CYCLOPROPYL-2-NAPHTHAMIDE]
36	Cc1cc([C@@H](C)NC(=O)c2cnc3cc(C(F)(F)F)ccc3c2)c(Cl)cc1NS(C)(=O)=O [Example 53, (R)—N-(1-(2-CHLORO-5-METHYL-4-(METHYLSULFONAMIDO)PHENYL)ETHYL)-7-(TRIFLUOROMETHYL)QUINOLINE-3-CARBOXAMIDE]
12	Cc1cc([C@@H](C)NC(=O)c2ccc3cc(C(F)(F)F)ccc3c2)ncc1NS(C)(=O)=O [Example 54, N-((1R)-1-{4-METHYL-5-[(METHYLSULFONYL)AMINO]PYRIDIN-2-YL}ETHYL)-6-(TRIFLUOROMETHYL)-2-NAPHTHAMIDE]
58	Cc1cc([C@@H](C)NC(=O)c2ccc3cc(C(F)(F)F)ccc3n2)c(Cl)cc1NS(C)(=O)=O [Example 57, (R)—N-(1-(2-CHLORO-5-METHYL-4-(METHYLSULFONAMIDO)PHENYL)ETHYL)-6-(TRIFLUOROMETHYL)QUINOLINE-2-CARBOXAMIDE]
7	Cc1cc([C@@H](C)NC(=O)c2ccc3cc(C4(C)CC4)ccc3c2)ncc1NS(C)(=O)=O [Example 58, (R)—N-(1-(4-METHYL-5-(METHYLSULFONAMIDO)PYRIDIN-2-YL)ETHYL)-6-(1-METHYL-CYCLOPROPYL)-2-NAPHTHAMIDE]
293	Cc1cc([C@@H](C)NC(=O)c2ccc3nc(N4CCCC4)ccc3c2)c(F)cc1NS(C)(=O)=O [Example 68, (R)—N-(1-(2-FLUORO-5-METHYL-4-(METHYLSULFONAMIDO)PHENYL)ETHYL)-2-(PYRROLIDIN-1-YL)QUINOLINE-6-CARBOXAMIDE]
26	Cc1cc([C@@H](C)NC(=O)c2ccc3nc(C(F)(F)F)cc(N4CCCCC4)c3c2)c(F)cc1NS(C)(=O)=O [Example 70, 4-PIPERIDIN-1-YL-2-TRIFLUOROMETHYL-QUINOLINE-6-CARBOXYLIC ACID [(R)-1-(2-FLUORO-4-METHANESULFONYLAMINO-5-METHYL-PHENYL)-ETHYL]-AMIDE]
29	Cc1cc([C@@H](C)NC(=O)c2ccc3nc(C(F)(F)F)cc(N4CCC(F)(F)CC4)c3c2)c(F)cc1NS(C)(=O)=O [Example 73, 4-(4,4-DIFLUORO-PIPERIDIN-1-YL)-2-TRIFLUOROMETHYL-QUINOLINE-6-CARBOXYLIC ACID [(R)-1-(2-FLUORO-4-METHANESULFONYLAMINO-5-METHYL-PHENYL)-ETHYL]-AMIDE]
13	C[C@@H](NC(=O)c1ccc2cc(C(F)(F)F)ccc2c1)c1ccc(NS(C)(=O)=O)c(CO)c1 [Example 74, N-((1R)-1-{3-(HYDROXYMETHYL)-4-[(METHYLSULFONYL)AMINO]PHENYL}ETHYL)-6-(TRIFLUOROMETHYL)-2-NAPHTHAMIDE]
48	Cc1cc([C@@H](C)NC(=O)c2ccc3nc(C(F)(F)F)cc(N4CCC(C(F)(F)F)CC4)c3c2)c(F)cc1NS(C)(=O)=O [Example 76, 2-TRIFLUOROMETHYL-4-(4-TRIFLUOROMETHYL-PIPERIDIN-1-YL)-QUINOLINE-6-CARBOXYLIC ACID [(R)-1-(2-FLUORO-4-METHANESULFONYLAMINO-5-METHYL-PHENYL)-ETHYL]-AMIDE]
4	Cc1cc([C@@H](C)NC(=O)c2ccc3ccc(C(F)(F)F)cc3c2)ccc1NS(C)(=O)=O [Example 77]
748	Cc1cc([C@@H](C)NC(=O)c2ccc3nc(N4CCOCC4)ccc3c2)c(F)cc1NS(C)(=O)=O [Example 81, ((R)—N-(1-(2-FLUORO-5-METHYL-4-(METHYLSULFONAMIDO)PHENYL)ETHYL)-2-MORPHOLINOQUINOLINE-6-CARBOXAMIDE]
51	Cc1cc([C@@H](C)NC(=O)c2ccc3nc(C(F)(F)F)nc(N4CCCCC4)c3c2)c(F)cc1NS(C)(=O)=O [Example 84, 4-PIPERIDIN-1-YL-2-TRIFLUOROMETHYL-QUINAZOLINE-6-CARBOXYLIC ACID [(R)-1-(2-FLUORO-4-METHANESULFONYLAMINO-5-METHYL-PHENYL)-ETHYL]-AMIDE]
60	Cc1cc([C@@H](C)NC(=O)c2ccc3nc(C(F)(F)F)nc(N4CCN(c5cccc(Cl)c5)CC4)c3c2)c(F)cc1NS(C)(=O)=O [Example 85, 4-[4-(3-CHLORO-PHENYL)-PIPERAZIN-1-YL]-2-TRIFLUOROMETHYL-QUINAZOLINE-6-CARBOXYLIC ACID [(R)-1-(2-FLUORO-4-METHANESULFONYLAMINO-5-METHYL-PHENYL)-ETHYL]-AMIDE]
7	Cc1cc([C@@H](C)NC(=O)c2ccc3nc(C(F)(F)F)nc(N4CC(C)OC(C)C4)c3c2)c(F)cc1NS(C)(=O)=O (stereo partly drawn) [Example 86, 4-(2,6-DIMETHYL-MORPHOLIN-4-YL)-2-TRIFLUOROMETHYL-QUINAZOLINE-6-CARBOXYLIC ACID [(R)-1-(2-FLUORO-4-METHANESULFONYLAMINO-5-METHYL-PHENYL)-ETHYL]-AMIDE]
111	Cc1cc([C@@H](C)NC(=O)c2cnc3cc(C4CC4)cnc3c2)c(F)cc1NS(C)(=O)=O [Example 87, 7-CYCLOPROPYL-[1.5]NAPHTHYRIDINE-3-CARBOXYLIC ACID [(R)-1-(2-FLUORO-4-METHANESULFONYLAMINO-5-METHYL-PHENYL)-ETHYL]-AMIDE]
50	COc1ccccc1N1CCN(c2nc(C(F)(F)F)nc3ccc(C(=O)N[C@H](C)c4cc(C)c(NS(C)(=O)=O)cc4F)cc23)CC1 [Example 88, 4-[4-(2-METHOXY-PHENYL)-PIPERAZIN-1-YL]-2-TRIFLUOROMETHYL-QUINAZOLINE-6-CARBOXYLIC ACID [(R)-1-(2-FLUORO-4-METHANESULFONYLAMINO-5-METHYL-PHENYL)-ETHYL]-AMIDE]
112	Cc1cc([C@@H](C)NC(=O)c2ccc3nc(C(F)(F)F)cc(N4CC[C@@H](O)C4)c3c2)c(F)cc1NS(C)(=O)=O [Example 90, 4-((R)-3-HYDROXYPYRROLIDIN-1-YL)-2-TRIFLUOROMETHYLQUINOLINE-6-CARBOXYLIC ACID [(R)-1-(2-FLUORO-4-METHANESULFONYLAMINO-5-METHYLPHENYL)ETHYL]AMIDE]
366	Cc1cc([C@@H](C)NC(=O)c2ccc3nc(C(F)(F)F)cc(N4CC[C@H](O)C4)c3c2)c(F)cc1NS(C)(=O)=O [Example 91, 4-((S)-3-HYDROXY-PYRROLIDIN-1-YL)-2-TRIFLUOROMETHYLQUINOLINE-6-CARBOXYLIC ACID [(R)-1-(2-FLUORO-4-METHANESULFONYLAMINO-5-METHYLPHENYL)ETHYL]AMIDE]
24	Cc1cc([C@@H](C)NC(=O)c2ccc3nc(C(F)(F)F)cc(N4CC(F)(F)C4)c3c2)c(F)cc1NS(C)(=O)=O [Example 92, 4-(3,3-DIFLUOROAZETIDIN-1-YL)-2-TRIFLUOROMETHYLQUINOLINE-6-CARBOXYLIC ACID [(R)-1-(2-FLUORO-4-METHANESULFONYLAMINO-5-METHYLPHENYL)-ETHYL]AMIDE]
370	Cc1cc([C@@H](C)NC(=O)c2ccc3nc(C(F)(F)F)cc(N4CCC[C@@H]4CO)c3c2)c(F)cc1NS(C)(=O)=O [Example 93, 4-((R)-2-HYDROXYMETHYLPYRROLIDIN-1-YL)-2-TRIFLUOROMETHYLQUINOLINE-6-CARBOXYLIC ACID [(R)-1-(2-FLUORO-4-METHANESULFONYLAMINO-5-METHYLPHENYL)ETHYL]AMIDE]
